The values below are quoted from earlier work in patent publication US20130172299A1, “Combination Therapy for Treatment of Bone and Mineral Disorders for Patients with Impaired Renal Function” (priority 2008, published 2013).

For data set [1] the following is noted: hemodialysis patients.

`Cc1c(O)cc2c(c1C)O[C@](C)(CCC[C@H](C)CCC[C@H](C)CCCC(C)C)CC2` [Gamma tocopherol]: the “inflammation in ESRD” value (300 mg po qd for 14 days) is “efficacy in reducing inflammation”. For the same molecule, the serious adverse events result (300 mg po qd, 15 patients treated for 14 days) is listed as “no serious adverse events were reported”.

In the case of `NC(=O)c1cccnc1` [nicotinamide], in data set [1], the LDL cholesterol entry is on record as “decreased”, the “serum HDL cholesterol” value is “increased”, the serum calcium levels entry is “did not change” and the serum phosphorous levels result is “significantly reduced”.
